The data set concerns CCRIS mutagenicity, Ames/micronucleus/aberration tests. Briefly: CCRIS mutagenicity studies.
The mark [1] stands for this setting: Test System: E. COLI, Strain/Indicator: WP2 UVRA, Metabolic Activation: NONE, Method: STANDARD PLATE.
[2] abbreviates: Test System: AMES SALMONELLA TYPHIMURIUM, Strain/Indicator: TA98, Metabolic Activation: NONE, Method: PREINCUBATION
[3] abbreviates: Test System: AMES SALMONELLA TYPHIMURIUM, Strain/Indicator: TA98, Metabolic Activation: NONE, Method: STANDARD PLATE.
The mark [4] stands for this setting: Test System: AMES SALMONELLA TYPHIMURIUM, Strain/Indicator: TA100, Metabolic Activation: NONE, Method: PREINCUBATION
The mark [5] stands for this setting: Test System: AMES SALMONELLA TYPHIMURIUM, Strain/Indicator: TA100, Metabolic Activation: NONE, Method: STANDARD PLATE.

These results are taken from PubChem BioAssay AID1259407 (Chemical Carcinogenesis Research Information System (CCRIS), 2018).

Active and inactive are the calls of the source. How the calls were made is not given here.

In the case of `Nc1ccc2c3c(cccc13)-c1ccccc1-2`, the mutagenic call reads like this: (Test System: AMES SALMONELLA TYPHIMURIUM, Strain/Indicator: TA98, Metabolic Activation: RAT, LIVER, S-9, AROCLOR 1254 (2 OR 4%), Method: STANDARD PLATE) “active; positive”; (Test System: AMES SALMONELLA TYPHIMURIUM, Strain/Indicator: TA100, Metabolic Activation: RAT, LIVER, S-9, AROCLOR 1254 (4%), Method: STANDARD PLATE) “active; positive”; (Test System: AMES SALMONELLA TYPHIMURIUM, Strain/Indicator: TA1535, Metabolic Activation: RAT, LIVER, S-9, AROCLOR 1254 (4%), Method: STANDARD PLATE) “inactive; negative”; (Test System: AMES SALMONELLA TYPHIMURIUM, Strain/Indicator: TA1537, Metabolic Activation: RAT, LIVER, S-9, AROCLOR 1254 (4%), Method: STANDARD PLATE) “active; positive”.

In the case of `COCC(O)Cn1ccnc1[N+](=O)[O-]` (stereo not given), under setting [1], the mutagenic call was “active; positive”.

Turning to `Nc1ccc(S(=O)(=O)c2ccc(N)cc2)cc1`, the mutagenic call is “inactive; negative” under setting [2]; “inactive; negative” under setting [3]; “inactive; negative” (Test System: AMES SALMONELLA TYPHIMURIUM, Strain/Indicator: TA98, Metabolic Activation: RAT, LIVER, S-9, PCB, Method: STANDARD PLATE); “inactive; negative” under setting [4]; “inactive; negative” under setting [5]; “inactive; negative” (Test System: AMES SALMONELLA TYPHIMURIUM, Strain/Indicator: TA100, Metabolic Activation: RAT, LIVER, S-9, PCB, Method: STANDARD PLATE). The mutagenic call by setting is: (Test System: E. COLI, Strain/Indicator: WP2 UVRA, Metabolic Activation: HAMSTER, LIVER, S-9, AROCLOR 1254, Method: STANDARD PLATE) “inactive; negative”; (Test System: E. COLI, Strain/Indicator: WP2 UVRA, Metabolic Activation: HAMSTER, LIVER, S-9, Method: STANDARD PLATE) “inactive; negative”; (Test System: E. COLI, Strain/Indicator: WP2 UVRA, Metabolic Activation: MOUSE, LIVER, S-9, AROCLOR 1254, Method: STANDARD PLATE) “inactive; negative”; (Test System: E. COLI, Strain/Indicator: WP2 UVRA, Metabolic Activation: MOUSE, LIVER, S-9, Method: STANDARD PLATE) “inactive; negative”; under setting [1], “inactive; negative”; (Test System: E. COLI, Strain/Indicator: WP2 UVRA, Metabolic Activation: RAT, LIVER, S-9, AROCLOR 1254, Method: STANDARD PLATE) “inactive; negative”. Further, the mutagenic call (Test System: E. COLI, Strain/Indicator: WP2 UVRA, Metabolic Activation: RAT, LIVER, S-9, Method: STANDARD PLATE) was “inactive; negative”.

In the case of `CCc1c(O)c2c(c(O)c1OC)C(=O)C(OC)=C(OC)C2=O`, the mutagenic call was “inactive; negative” (Test System: AMES SALMONELLA TYPHIMURIUM, Strain/Indicator: TA98, Metabolic Activation: MICROSOMAL FRACTION, FULLY ACTIVATED, AND RAT LIVER S-9, Method: STANDARD PLATE); “inactive; negative” (Test System: AMES SALMONELLA TYPHIMURIUM, Strain/Indicator: TA98, Metabolic Activation: MICROSOMAL FRACTION, NON-FULLY ACTIVATED, Method: STANDARD PLATE); “inactive; negative” (Test System: AMES SALMONELLA TYPHIMURIUM, Strain/Indicator: TA100, Metabolic Activation: MICROSOMAL FRACTION, FULLY ACTIVATED, AND RAT LIVER S-9, Method: STANDARD PLATE); “inactive; negative” (Test System: AMES SALMONELLA TYPHIMURIUM, Strain/Indicator: TA100, Metabolic Activation: MICROSOMAL FRACTION, NON-FULLY ACTIVATED, Method: STANDARD PLATE); “inactive; negative” (Test System: AMES SALMONELLA TYPHIMURIUM, Strain/Indicator: TA1537, Metabolic Activation: MICROSOMAL FRACTION, FULLY ACTIVATED, AND RAT LIVER S-9, Method: STANDARD PLATE); “inactive; negative” (Test System: AMES SALMONELLA TYPHIMURIUM, Strain/Indicator: TA1537, Metabolic Activation: MICROSOMAL FRACTION, NON-FULLY ACTIVATED, Method: STANDARD PLATE).

For `O=C1c2ccc([N+](=O)[O-])cc2C(=O)N1CCl`, the mutagenic call was “active; positive” under setting [2]; “active; positive” (Test System: AMES SALMONELLA TYPHIMURIUM, Strain/Indicator: TA98, Metabolic Activation: RAT, LIVER, S-9, PCB, Method: PREINCUBATION); “active; positive” under setting [4]; “active; positive” (Test System: AMES SALMONELLA TYPHIMURIUM, Strain/Indicator: TA100, Metabolic Activation: RAT, LIVER, S-9, PCB, Method: PREINCUBATION).

On to `CCN(C(C)OC(C)=O)[N+](=O)[O-]` (stereo not given), for which the mutagenic call (Test System: E. COLI, Strain/Indicator: WP2 (HCR-), Metabolic Activation: NONE) is “active; positive”.

With `Nc1c2c(nc3ccccc13)CCCC2`, the mutagenic call was “active; positive” (Test System: AMES SALMONELLA TYPHIMURIUM, Strain/Indicator: TA97, Metabolic Activation: HAMSTER LIVER S-9, AROCLOR 1254 (30%), Method: PREINCUBATION); “active; positive” (Test System: AMES SALMONELLA TYPHIMURIUM, Strain/Indicator: TA97, Metabolic Activation: NONE, Method: PREINCUBATION); “active; positive” (Test System: AMES SALMONELLA TYPHIMURIUM, Strain/Indicator: TA97, Metabolic Activation: RAT LIVER S-9, AROCLOR 1254 (30%), Method: PREINCUBATION); “inactive; negative” (Test System: AMES SALMONELLA TYPHIMURIUM, Strain/Indicator: TA98, Metabolic Activation: HAMSTER LIVER S-9, AROCLOR 1254 (5 OR 10%), Method: PREINCUBATION); “active; positive” (Test System: AMES SALMONELLA TYPHIMURIUM, Strain/Indicator: TA98, Metabolic Activation: HAMSTER LIVER S-9, AROCLOR 1254 (30%), Method: PREINCUBATION); “inactive; negative” under setting [2]. For the same compound, the mutagenic call reads like this: (Test System: AMES SALMONELLA TYPHIMURIUM, Strain/Indicator: TA98, Metabolic Activation: RAT LIVER S-9, AROCLOR 1254 (5%), Method: PREINCUBATION) “active; positive”; (Test System: AMES SALMONELLA TYPHIMURIUM, Strain/Indicator: TA98, Metabolic Activation: RAT LIVER S-9, AROCLOR 1254 (10%), Method: PREINCUBATION) “active; positive”; (Test System: AMES SALMONELLA TYPHIMURIUM, Strain/Indicator: TA98, Metabolic Activation: RAT LIVER S-9, AROCLOR 1254 (30%), Method: PREINCUBATION) “inactive; negative”; under setting [4], “inactive; negative”; (Test System: AMES SALMONELLA TYPHIMURIUM, Strain/Indicator: TA100, Metabolic Activation: RAT LIVER S-9, AROCLOR 1254 (30%), Method: PREINCUBATION) “inactive; negative”; (Test System: UDS MOUSE HEPATOCYTES, Strain/Indicator: THY INCORP, Metabolic Activation: NONE, Method: AUTORADIOGRAPHY) “active; positive”. Further, the mutagenic call (Test System: UDS RAT HEPATOCYTES, Strain/Indicator: THY INCORP, Metabolic Activation: NONE, Method: AUTORADIOGRAPHY) was “active; positive”.

Turning to `Cc1nc2c(c3[nH]c4ccccc4c13)C(=O)C=C(N1CC1)C2=O`, the mutagenic call is, setting by setting: (Test System: AMES SALMONELLA TYPHIMURIUM, Strain/Indicator: TA97, Metabolic Activation: NONE, Method: STANDARD PLATE) “active; positive”; (Test System: AMES SALMONELLA TYPHIMURIUM, Strain/Indicator: TA97, Metabolic Activation: RAT, LIVER, S-9, AROCLOR 1254, Method: STANDARD PLATE) “active; positive”; under setting [3], “active; positive”; (Test System: AMES SALMONELLA TYPHIMURIUM, Strain/Indicator: TA98, Metabolic Activation: RAT, LIVER, S-9, AROCLOR 1254, Method: STANDARD PLATE) “active; positive”; under setting [5], “active; positive”; (Test System: AMES SALMONELLA TYPHIMURIUM, Strain/Indicator: TA100, Metabolic Activation: RAT, LIVER, S-9, AROCLOR 1254, Method: STANDARD PLATE) “active; positive”. The mutagenic call reads like this: (Test System: AMES SALMONELLA TYPHIMURIUM, Strain/Indicator: TA102, Metabolic Activation: NONE, Method: STANDARD PLATE) “inactive; negative”; (Test System: AMES SALMONELLA TYPHIMURIUM, Strain/Indicator: TA102, Metabolic Activation: RAT, LIVER, S-9, AROCLOR 1254, Method: STANDARD PLATE) “active; positive”.
